The source of these data is US20110243844A1, “SULFONAMIDE DERIVATIVE METABOTROPIC GLUTAMATE R4 LIGANDS” (priority 2008, published 2011).

The target in assay [1] is T1, mGluR4 (Homo sapiens, UniProt Q14833). The assay is described as follows: mGluR4 binding assay (filtration, [3H] radiotracer displacement, in presence of L-AP4). The note with it: membranes from CHO cells expressing human mGluR4; 20 uM L-AP4; 7 nM radiotracer; 1 hour at room temperature. The arrangement: expressed in transfected cells; host or cells: CHO cells. The method, then:
Membranes were prepared from CHO cells expressing the human mGluR4 receptor. Cells were harvested using trypsin and then washed in assay buffer, assay buffer contains 50 mM HEPES, 1 mM EDTA and protease inhibitors (Boehringer Mannheim catalog #1 836 170). Harvested cells were pelleted by centrifugation and stored at −80° C. for a minimum of 12 hours. Cells were resuspended in assay buffer and lysed by a polytron, a low speed spin, 2000×g for 10 min, was used to recover unbroken cells for additional treatment using the polytron. The cleared supernatant from the low speed spins was subjected to a high speed spin, 96,000×g for 1 hour. The membrane pellet from the high speed spin was resuspended in assay buffer and used in the mGluR4 binding assay.
The binding assay follows a standard filtration binding paradigm. The binding buffer consists of 20 mM HEPES, 100 mM NaCl and 3 mM MgCl2, the pH of the buffer is 7.4. The assay is performed in a 96-well format with each well containing test compound, 25 to 50 ug of membrane protein, 20 uM L-AP4, and 7 nM radiotracer, [^3H]-N-[3-Chloro-4-(4-methyl-1,3-dioxo-1,3-dihydro-2H-isoindol-2-yl)phenyl]pyridine-2-carboxamide, which is disclosed in commonly owned U.S. patent application docket no. MRL-NOP-00030-US-PSP, filed contemporaneously with this application.
The binding reaction is incubated at room temperature for 1 hour, and then is passed through GF/B filter that was presoaked with 0.5% PEI. The cell membranes are collected on the filter and then washed five times with ˜5 ml ice cold binding buffer that contains 0.01% BSA. The washed filter plate is dried for 30 minutes at 37° C., scintillation fluid is added, and the amount of filter bound radioactivity is determined using a TopCount instrument. Total binding is determined in the absence of any test compound, but in the presence of the DMSO concentration that would result from the addition of test compound. To determine the level of non-specific binding for the radiotracer [^3H]-N-[3-Chloro-4-(4-methyl-1,3-dioxo-1,3-dihydro-2H-isoindol-2-yl)phenyl]pyridine-2-carboxamide, 5 uM of unlabeled […]N-[3-Chloro-4-(4-methyl-1,3-dioxo-1,3-dihydro-2H-isoindol-2-yl)phenyl]pyridine-2-carboxamide, is added to determine the level of non-specific binding.
A 10-point dose response, with either 2-fold or 3-fold dilution steps, is performed and curve fitting algorithms, suitable for a sigmoidal dose response relationship, are used to fit the data. The inflection point of the curve, or IC50, provides a measure of the affinity of a test compound for the mGluR4 receptor.

The target of assay [2] is T1, mGluR4. Nature of the assay: Fluorescent Imaging Plate Reader (FLIPR) assay for mGluR4 potentiators. The assay is classed as cell-based. The arrangement: expressed in transfected cells. Conditions: for EC50: inflection point of curve, potentiation of EC10 concentration of L-AP4 (30 nM), read-out: mGluR4 FLIPR Potency; for Emax: maximal activity relative to response with saturating concentration (10 uM) of agonist L-AP4, read-out: mGluR4 FLIPR % Max Efficacy. The method, then:
Fluorescent Imaging Plate Reader (FLIPR) Assay for mGluR4 Potentiators Cells are grown in Corning […] cm^2 flasks in DMEM growth media at 37° C. and 5% CO2. Growth media contains: […] The day prior to the experiment the cells were plated in growth medium (minus glutamine) at 50K cells/well into Becton-Dickinson 384-well PDL-coated plates using a Labsystems Multidrop (0.1 ml/well). The cells are grown overnight at 37° C. and 6% CO2. The following day, the cells are washed with Assay Buffer at 37° C. using a Skatron EMBLA cell washer (3×100 μl, aspiration 3 mm from bottom will leave 30 μl of buffer in each well). Assay buffer is Hanks balanced salt solution with 20 mM HEPES, 2.5 mM probenecid and 0.1% BSA. Fluorescent dye, 30 μl of the diluted Fluo-4-AM, is added to each well of the plate. […] The assay plates are placed back into the 6% CO2 incubator and incubated at 37° C. for 60 min. The 384-well plates are washed with Assay Buffer at 37° C. on using a cell washer (3×100 μl, aspiration 3 mm from bottom, will leave 30 μl of buffer in each well). The experimental run is initiated and after 30 sec a dose of test compound is applied. The fluorescent response elicited by test compound is monitored for 5 min, any positive response detected at this stage is attributed to agonist properties of the test compound. […] Controls for the assay include a no compound control, a positive control which is a saturating concentration, 10 uM, of the agonist L-AP4. A 10 point dose response, with either 2-fold or 3-fold dilution steps, is performed and curve fitting algorithms, suitable for a sigmoidal dose response relationship, are used to fit the data. The inflection point of the curve provides a measure of compound potency. A comparison of the maximal level of activity achieved for a test compound, relative to the response achieved with a saturating concentration of the agonist L-AP4 provides a measure of compound efficacy.

A word on the IC50: it is the midpoint of a concentration-inhibition curve.

T1 sequence (Q14833 33-912): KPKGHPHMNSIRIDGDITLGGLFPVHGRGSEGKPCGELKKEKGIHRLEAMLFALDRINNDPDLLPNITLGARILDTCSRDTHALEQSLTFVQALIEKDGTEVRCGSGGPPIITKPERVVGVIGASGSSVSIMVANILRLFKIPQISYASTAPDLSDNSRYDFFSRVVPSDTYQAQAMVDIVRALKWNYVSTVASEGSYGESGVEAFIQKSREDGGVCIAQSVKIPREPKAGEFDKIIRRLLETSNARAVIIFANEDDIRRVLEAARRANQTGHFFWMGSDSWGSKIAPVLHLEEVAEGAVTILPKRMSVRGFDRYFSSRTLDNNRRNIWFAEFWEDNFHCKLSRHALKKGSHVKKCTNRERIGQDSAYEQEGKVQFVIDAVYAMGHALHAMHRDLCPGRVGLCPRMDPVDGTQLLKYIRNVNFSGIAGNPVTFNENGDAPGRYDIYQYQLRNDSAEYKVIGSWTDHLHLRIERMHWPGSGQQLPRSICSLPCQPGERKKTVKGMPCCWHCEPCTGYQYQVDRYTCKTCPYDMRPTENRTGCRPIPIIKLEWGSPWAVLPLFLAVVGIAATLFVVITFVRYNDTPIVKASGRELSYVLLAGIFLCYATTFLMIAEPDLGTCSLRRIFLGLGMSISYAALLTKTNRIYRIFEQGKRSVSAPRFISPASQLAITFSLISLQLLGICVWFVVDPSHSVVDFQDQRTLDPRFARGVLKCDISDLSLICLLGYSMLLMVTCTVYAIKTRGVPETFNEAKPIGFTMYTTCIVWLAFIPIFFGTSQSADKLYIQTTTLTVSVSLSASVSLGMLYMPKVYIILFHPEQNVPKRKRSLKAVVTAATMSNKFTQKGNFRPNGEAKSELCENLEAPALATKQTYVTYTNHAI

With `O=C(Nc1ccc(S(=O)(=O)Nc2ccccc2Cc2ccccc2)cc1)c1ccccn1` [Example 41], the IC50 at mGluR4 [1] worked out at 182 nM. Further, at mGluR4 [2], the EC50 was found to be 480 nM and the Emax stood at 124%.

Consider `O=C(Nc1ccc(S(=O)(=O)Nc2ccccc2Br)cc1)c1ccccn1` [Example 30], for which, on mGluR4 [1], the IC50 is 141 nM. Also, on mGluR4 [2], the EC50 amounted to 134 nM and the Emax was 110%.

Take `O=C(Nc1ccc(S(=O)(=O)Nc2ccccc2Cl)cc1)c1ccccn1` [Example 1, N-(4-{[(2-Chlorophenyl)amino]sulfonyl}phenyl)pyridine-2-carboxamide]: the IC50 at mGluR4 [1] turned out to be 33 nM. Besides, on mGluR4 [2], the EC50 was determined as 162 nM and the Emax worked out at 111%.

As for `Cc1ccc(NS(=O)(=O)c2ccc(NC(=O)c3ccccn3)cc2)cc1` [Example 18], the IC50 on mGluR4 [1] amounted to 1100 nM. Moreover, on mGluR4 [2], the EC50 amounted to 1350 nM and the Emax was determined as 93%.

`COc1cc(NC(=O)c2ccccn2)ccc1S(=O)(=O)Nc1ccccc1` [Example 6]: the IC50 at mGluR4 [1] was 6080 nM. On mGluR4 [2], the EC50 came out at 3940 nM and the Emax turned out to be 70%.
